Results: publication PMC12627933, “A First-In-Human Study of the SUMOylation Inhibitor Subasumstat in Patients with Advanced/Metastatic Solid Tumors or Relapsed/Refractory Hematologic Malignancies” (Cancer Research Communications, 2025)
Like-named read-outs stand apart in the source and are kept apart here.

Columns and labels:
[1] = tested on: MSS colorectal cancer and non-squamous NSCLC; design: method as in ref 18 = [18]; 18. Goel S , Ulahannan SV , Olszanski AJ , LoRusso P , Sanborn RE , Sharma S , . A phase 1b, multicenter, dose-escalation study of subasumstat (TAK-981) in combination with pembrolizumab in patients; conditions: in combination with pembrolizumab, cited from earlier work
[2] = cited from earlier work
NK cells and T cells = test: NK- and T-cell activation (CD69+ cells) in peripheral blood by flow cytometry; assay type: in vivo, human
Protocol: Blood samples for subasumstat–SUMO adduct formation and SUMO2/3 inhibition assessments were collected before dose and at 1, 4, and 8 hours after the infusion on C1D1 and C1D8. Blood samples for additional biomarker analyses were collected before dose on C1D1 and C1D8 and at 4, 8, and 24 hours after infusion on C1D1 and C1D8. Skin biopsies (used as surrogate tissue for solid tumors) were collected at screening and on C1D8 at 2 hours (±30 minutes) after end of infusion, and tumor biopsies were collected at screening and cycle 2 day 8 (C2D8; +7 days; whenever possible). […] Activation of the IFNI pathway was assessed in peripheral blood by analysis of gene expression data (PanCancer IO 360 panel by NanoString for phase I and whole-transcriptome RNA sequencing data for phase II). […] These seven IFNI-regulated genes were selected prior to the trial, based on in vitro studies of the effect of subasumstat on human blood from 10 healthy donors analyzed on the NanoString PanCancer IO 360 panel. Plasma chemokines and cytokines were measured using the MesoScale Discovery platform (pro-inflammatory and chemokine panels, BioAgilytix). […] Tumor PD-L1 expression level was assessed in paired tumor biopsies using the 22C3 PD-L1 IHC assay; combined positive score (CPS) was calculated for baseline and on-treatment tumor samples. […]

[3] = molecular target: T1, SUMO-activating enzyme (SAE) (Homo sapiens, UniProt Q9UBT2); test: Target engagement: SUMO–subasumstat adduct formation in blood lymphocytes, skin and tumor (flow cytometry, IHC); assay type: in vivo
T1 construct: from tissue; host or cells: patients' peripheral blood lymphocytes, skin biopsies and tumor biopsies
T1 sequence (Q9UBT2 1-640): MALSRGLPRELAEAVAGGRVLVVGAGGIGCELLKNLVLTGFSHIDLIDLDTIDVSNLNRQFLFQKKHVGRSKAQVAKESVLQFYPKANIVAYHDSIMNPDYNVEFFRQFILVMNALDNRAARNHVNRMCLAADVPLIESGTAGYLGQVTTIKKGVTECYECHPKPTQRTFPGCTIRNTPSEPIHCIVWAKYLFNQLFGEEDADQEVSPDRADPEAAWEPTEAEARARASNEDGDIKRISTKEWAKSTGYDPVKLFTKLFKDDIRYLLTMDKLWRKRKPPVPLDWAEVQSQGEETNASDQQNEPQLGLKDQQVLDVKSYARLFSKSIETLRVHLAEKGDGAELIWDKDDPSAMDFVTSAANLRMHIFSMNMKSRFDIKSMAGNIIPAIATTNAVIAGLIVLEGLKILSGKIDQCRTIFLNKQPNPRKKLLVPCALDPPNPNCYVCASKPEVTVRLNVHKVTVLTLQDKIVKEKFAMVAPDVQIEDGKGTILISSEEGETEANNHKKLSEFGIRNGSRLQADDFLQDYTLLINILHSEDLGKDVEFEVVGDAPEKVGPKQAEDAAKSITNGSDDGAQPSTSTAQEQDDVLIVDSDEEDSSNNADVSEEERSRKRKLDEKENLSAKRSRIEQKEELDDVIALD
T1 sequence (Q9UBE0 1-346 partner): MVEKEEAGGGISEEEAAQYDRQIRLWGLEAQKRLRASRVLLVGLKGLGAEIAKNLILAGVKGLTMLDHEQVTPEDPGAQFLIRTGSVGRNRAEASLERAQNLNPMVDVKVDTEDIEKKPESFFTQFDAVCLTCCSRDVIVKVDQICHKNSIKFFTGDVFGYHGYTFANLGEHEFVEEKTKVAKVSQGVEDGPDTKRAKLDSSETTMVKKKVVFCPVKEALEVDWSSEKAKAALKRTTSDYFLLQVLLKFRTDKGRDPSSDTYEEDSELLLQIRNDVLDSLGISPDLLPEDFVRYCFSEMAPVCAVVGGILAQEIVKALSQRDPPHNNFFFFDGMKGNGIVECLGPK
Protocol: Blood samples for subasumstat–SUMO adduct formation and SUMO2/3 inhibition assessments were collected before dose and at 1, 4, and 8 hours after the infusion on C1D1 and C1D8. Blood samples for additional biomarker analyses were collected before dose on C1D1 and C1D8 and at 4, 8, and 24 hours after infusion on C1D1 and C1D8. Skin biopsies (used as surrogate tissue for solid tumors) were collected at screening and on C1D8 at 2 hours (±30 minutes) after end of infusion, and tumor biopsies were collected at screening and cycle 2 day 8 (C2D8; +7 days; whenever possible). In blood samples, a custom flow cytometry assay was utilized for detecting target engagement and SUMOylated protein levels in lymphocytes (including T-, B-, and NK-cell subsets). The assay included a PE-conjugated antibody specifically recognizing the SUMO–subasumstat adduct (MIL-113, anti–cysteinyl-TAK-981, Epitomics; refs. [14], [15], [22]) and an AF488-conjugated antibody recognizing SUMO2/3 conjugates (MBL International, cat. #M114-3, RRID: AB_592769). Peripheral blood cells were lysed/fixed, permeabilized (BD Biosciences), and stained with MIL-113 and M114-3 and with antibodies against CD45, CD3, CD19, CD16/CD56, and CD14. IHC assays for SUMO–subasumstat adduct and SUMO2/3 inhibition in skin biopsies and tumors were performed using MIL-113 and M114-3 antibodies. Activation of the IFNI pathway was assessed in peripheral blood by analysis of gene expression data (PanCancer IO 360 panel by NanoString for phase I and whole-transcriptome RNA sequencing data for phase II). Type I IFN gene signature was computed using geometric mean of the following genes: CCL2, CXCL10, DDX58, IRF7, ISG15, STAT1, and STAT2. These seven IFNI-regulated genes were selected prior to the trial, based on in vitro studies of the effect of subasumstat on human blood from 10 healthy donors analyzed on the NanoString PanCancer IO 360 panel. Plasma chemokines and cytokines were measured using the MesoScale Discovery platform (pro-inflammatory and chemokine panels, BioAgilytix). For assessment of NK- and T-cell activation, cells were suspended in buffer and incubated with the following monoclonal antibodies: APC-H7 mouse anti–human CD45 (BD Biosciences, cat. #560274), APC mouse anti–human CD69 (BD Biosciences, cat. #555533), BV421 mouse anti–human CD56 (BD Biosciences, cat. #562751), mouse anti–human CD16 PerCP-Cy5.5 (BD Biosciences, cat. #338440), BV510 mouse anti–human CD4 (BD Biosciences, cat. #563094), BV605 mouse anti–human CD8 (BD Biosciences, cat. #564116), and Alexa Fluor 700 anti–mouse CD3 antibody (BioLegend, cat. #100215), prior to assessment by flow cytometry using the BD Scientific FACSCanto flow cytometer (RRID: SCR_018055). Tumor PD-L1 expression level was assessed in paired tumor biopsies using the 22C3 PD-L1 IHC assay; combined positive score (CPS) was calculated for baseline and on-treatment tumor samples. The immune landscape in the tumor microenvironment (TME) was assessed using an integrated RNAscope and 27-marker MultiOmyx immunofluorescence panel.

macrophages and NK cells = tested on: macrophages and NK cells; design: method as in PMID 35226739; conditions: IFNI-dependent innate immune activation; cited from earlier work

Compound: Cc1sc(C(=O)c2cncnc2N[C@@H]2C[C@H](COS(N)(=O)=O)[C@@H](O)C2)cc1[C@@H]1NCCc2ccc(Cl)cc21 [subasumstat]
- Antitumor activity ([1]; MSS colorectal cancer dose-expansion cohort): no activity was observed
- Antitumor activity ([1]; relapsed/refractory MSS colorectal cancer and CPI-exposed non-squamous NSCLC, dose-escalation cohort): preliminary antitumor activity
- Lymphopenia ([2]; A20 lymphoma–bearing BALB/c mice): transient lymphopenia
- B-cell depletion ([2]; mouse model of pancreatic ductal adenocarcinoma): transient B-cell depletion
- Systemic toxicities ([2]; preclinical mouse models): No systemic toxicities were observed
- Time of peak CD69+ effect after infusion (NK cells and T cells; C1D1 and C1D8): 24 h
- Dose from which percentage of CD69+ NK and T cells increased (NK cells and T cells; peripheral blood, both dose schedules and study phases): ≥ 60 mg
- Target engagement in tumor samples ([3]; all evaluated tumor samples, 8 patients 90 mg twice weekly (C2D8), 1 melanoma patient 25 mg twice weekly (C1D8)): robust target engagement
- Dose level from which SUMO–subasumstat adduct formation was detected ([3]; peripheral blood lymphocytes, C1D1 and C1D8, phase I): ≥ 10 mg
- Time to detection of SUMO–subasumstat adduct after end of infusion ([3]; peripheral blood lymphocytes, doses ≥10 mg): ≤ 1 h
- Persistence of target engagement ([3]; peripheral blood lymphocytes, twice weekly and once weekly schedules): at least 8 hours
- Dose from which adduct formation was observed in skin biopsies ([3]; skin biopsies 2 hours after the C1D8 dose): ≥ 10 mg
- Killing of tumor cell targets (macrophages and NK cells): enhanced killing of tumor cell targets
